Test results taken from PubChem BioAssay AID1259411 (Chemical Carcinogenesis Research Information System (CCRIS), 2018).
Activity calls are given as the source filed them. The rule behind the calls is not given here.

System: rodent carcinogenicity bioassays, tumor incidence
Experiment: CCRIS carcinogenicity studies
Details: Dose: 0, Dose: 0
How it was run: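 NCI-built, expert-reviewed records of carcinogenicity and related test outcomes (mutagenicity, tumor promotion/inhibition) compiled from published and report sources, historical span 1985-2011, not updated.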

Measured: carcinogen call

ClCC(Cl)CCl
active: Species: GUPPIE, Strain/Sex: FEMALE, Route: AQUARIUM WATER, 4.5, 9, 18 MG/L FOR 9 MO THEN IN CLEAN WATER FOR 7 MO (STUDY DURATION: 16 MO), 4.5, 9, 18 MG/L FOR 9 MO THEN IN CLEAN WATER FOR 7 MO (STUDY DURATION: 16 MO), Tumor Site: Type of Lesion: LIVER: CHOLANGIOCARCINOMA, HEPATOCELLULAR ADENOMA OR CARCINOMA active; positive | Species: GUPPIE, Strain/Sex: FEMALE, Route: AQUARIUM WATER, 4.5, 9, 18 MG/L FOR 16 MO (STUDY DURATION: 16 MO), 4.5, 9, 18 MG/L FOR 16 MO (STUDY DURATION: 16 MO), Tumor Site: Type of Lesion: LIVER: HEPATOCELLULAR ADENOMA OR CARCINOMA, CHOLANGIOCARCINOMA active; positive | Species: GUPPIE, Strain/Sex: MALE, Route: AQUARIUM WATER, 4.5, 9, 18 MG/L FOR 9 MO THEN IN CLEAN WATER FOR 7 MO (STUDY DURATION: 16 MO), 4.5, 9, 18 MG/L FOR 9 MO THEN IN CLEAN WATER FOR 7 MO (STUDY DURATION: 16 MO), Tumor Site: Type of Lesion: LIVER: HEPATOCELLULAR ADENOMA OR CARCINOMA active; positive | Species: GUPPIE, Strain/Sex: MALE, Route: AQUARIUM WATER, 4.5, 9, 18 MG/L FOR 16 MO (STUDY DURATION: 16 MO), 4.5, 9, 18 MG/L FOR 16 MO (STUDY DURATION: 16 MO), Tumor Site: Type of Lesion: LIVER: HEPATOCELLULAR ADENOMA OR CARCINOMA active; positive | Species: MEDAKA, Strain/Sex: FEMALE, Route: AQUARIUM WATER, 4.5, 9, 18 MG/L FOR 9 MO THEN IN CLEAN WATER FOR 4 MO (STUDY DURATION: 13 MO), 4.5, 9, 18 MG/L FOR 9 MO THEN IN CLEAN WATER FOR 4 MO (STUDY DURATION: 13 MO), Tumor Site: Type of Lesion: LIVER: CHOLANGIOCARCINOMA, HEPATOCELLULAR ADENOMA OR CARCINOMA, GALL BLADDER: ADENOMA active; positive | Species: MEDAKA, Strain/Sex: FEMALE, Route: AQUARIUM WATER, 4.5, 9, 18 MG/L FOR 13 MO (STUDY DURATION: 13 MO), 4.5, 9, 18 MG/L FOR 13 MO (STUDY DURATION: 13 MO), Tumor Site: Type of Lesion: LIVER: CHOLANGIOCARCINOMA, HEPATOCELLULAR ADENOMA OR CARCINOMA, HEPATOCHOLANGIOCARCINOMA, GALL BLADDER: ADENOMA active; positive | Species: MEDAKA, Strain/Sex: MALE, Route: AQUARIUM WATER, 4.5, 9, 18 MG/L FOR 9 MO THEN IN CLEAN WATER FOR 4 MO (STUDY DURATION: 13 MO), 4.5, 9, 18 MG/L FOR 9 MO THEN IN CLEAN WATER FOR 4 MO (STUDY DURATION: 13 MO), Tumor Site: Type of Lesion: LIVER: CHOLANGIOCARCINOMA, HEPATOCELLULAR ADENOMA OR CARCINOMA, GALL BLADDER: ADENOMA active; positive | Species: MEDAKA, Strain/Sex: MALE, Route: AQUARIUM WATER, 4.5, 9, 18 MG/L FOR 13 MO (STUDY DURATION: 13 MO), 4.5, 9, 18 MG/L FOR 13 MO (STUDY DURATION: 13 MO), Tumor Site: Type of Lesion: LIVER: CHOLANGIOCARCINOMA, HEPATOCELLULAR ADENOMA OR CARCINOMA, GALL BLADDER: ADENOMA, HEPATOCHOLANGIOCARCINOMA active; positive | Species: MOUSE, Strain/Sex: B6C3F1/FEMALE, Route: GAVAGE, 6, 20, 60 MG/KG BW IN CORN OIL 5 D/WK FOR 104 WK (STUDY DURATION: 2 YR), 6, 20, 60 MG/KG BW IN CORN OIL 5 D/WK FOR 104 WK (STUDY DURATION: 2 YR), Tumor Site: Type of Lesion: HARDERIAN GLAND: ADENOMA, LIVER: HEPATOCELLULAR ADENOMA, PHARYNX: SQUAMOUS CELL CARCINOMA, FORESTOMACH: SQUAMOUS CELL PA, Tumor Site: Type of Lesion: HARDERIAN GLAND: ADENOMA, LIVER: HEPATOCELLULAR ADENOMA, PHARYNX: SQUAMOUS CELL CARCINOMA, FORESTOMACH: SQUAMOUS CELL PA active; positive | Species: MOUSE, Strain/Sex: B6C3F1/MALE, Route: GAVAGE, 6, 20, 60 MG/KG BW IN CORN OIL 5 D/WK FOR 104 WK (STUDY DURATION: 2 YR), 6, 20, 60 MG/KG BW IN CORN OIL 5 D/WK FOR 104 WK (STUDY DURATION: 2 YR), Tumor Site: Type of Lesion: HARDERIAN GLAND: ADENOMA, LIVER: HEPATOCELLULAR ADENOMA, FORESTOMACH: SQUAMOUS CELL PAPILLOMA, SQUAMOUS CELL CARCINOMA, Tumor Site: Type of Lesion: HARDERIAN GLAND: ADENOMA, LIVER: HEPATOCELLULAR ADENOMA, FORESTOMACH: SQUAMOUS CELL PAPILLOMA, SQUAMOUS CELL CARCINOMA active; positive | Species: RAT, Strain/Sex: F344/FEMALE, Route: GAVAGE, 3, 10, 30 MG/KG BW IN CORN OIL 5 D/WK FOR 104 WK (STUDY DURATION: 2 YR), 3, 10, 30 MG/KG BW IN CORN OIL 5 D/WK FOR 104 WK (STUDY DURATION: 2 YR), Tumor Site: Type of Lesion: CLITORAL GLAND: ADENOMA, CARCINOMA, MAMMARY GLAND: CARCINOMA, PHARYNX: SQUAMOUS CELL CARCINOMA, FORESTOMACH: SQUAMOUS CE, Tumor Site: Type of Lesion: CLITORAL GLAND: ADENOMA, CARCINOMA, MAMMARY GLAND: CARCINOMA, PHARYNX: SQUAMOUS CELL CARCINOMA, FORESTOMACH: SQUAMOUS CE active; positive | Species: RAT, Strain/Sex: F344/MALE, Route: GAVAGE, 3, 10, 30 MG/KG BW IN CORN OIL 5 D/WK FOR 104 WK (STUDY DURATION: 2 YR), 3, 10, 30 MG/KG BW IN CORN OIL 5 D/WK FOR 104 WK (STUDY DURATION: 2 YR), Tumor Site: Type of Lesion: KIDNEY (RENAL TUBULE): ADENOMA, PANCREAS: ADENOMA, PHARYNX: SQUAMOUS CELL CARCINOMA, PREPUTIAL GLAND: ADENOMA, CARCINOMA, Tumor Site: Type of Lesion: KIDNEY (RENAL TUBULE): ADENOMA, PANCREAS: ADENOMA, PHARYNX: SQUAMOUS CELL CARCINOMA, PREPUTIAL GLAND: ADENOMA, CARCINOMA active; positive

CC#N
equivocal: Species: RAT, Strain/Sex: F344/MALE, Route: INHALATION, 100, 200, 400 PPM 6/HR/D 5 D/WK FOR 103 WK (STUDY DURATION: 105 WK), 100, 200, 400 PPM 6/HR/D 5 D/WK FOR 103 WK (STUDY DURATION: 105 WK), Tumor Site: Type of Lesion: LIVER: HEPATOCELLULAR ADENOMA, HEPATOCELLULAR CARCINOMA, HEPATOCELLULAR ADENOMA OR CARCINOMA
inactive: Species: MOUSE, Strain/Sex: B6C3F1/FEMALE, Route: INHALATION, 50, 100, 200 PPM 6 HR/D 5 D/WK FOR 103 WK (STUDY DURATION: 105 WK), 50, 100, 200 PPM 6 HR/D 5 D/WK FOR 103 WK (STUDY DURATION: 105 WK) inactive; negative | Species: MOUSE, Strain/Sex: B6C3F1/MALE, Route: INHALATION, 50, 100, 200 PPM 6 HR/D 5 D/WK FOR 103 WK (STUDY DURATION: 105 WK), 50, 100, 200 PPM 6 HR/D 5 D/WK FOR 103 WK (STUDY DURATION: 105 WK) inactive; negative | Species: RAT, Strain/Sex: F344/FEMALE, Route: INHALATION, 100, 200, 400 PPM 6/HR/D 5 D/WK FOR 103 WK (STUDY DURATION: 105 WK), 100, 200, 400 PPM 6/HR/D 5 D/WK FOR 103 WK (STUDY DURATION: 105 WK) inactive; negative

N[C@@H](Cc1c[nH]c2ccccc12)C(=O)O
inactive: Species: MOUSE, Strain/Sex: B6C3F1/FEMALE, Route: ORAL, 25000, 50000 PPM IN DIET, 25000, 50000 PPM IN DIET inactive; negative | Species: MOUSE, Strain/Sex: B6C3F1/MALE, Route: ORAL, 25000, 50000 PPM IN DIET, 25000, 50000 PPM IN DIET inactive; negative | Species: RAT, Strain/Sex: F344/FEMALE, Route: ORAL, 25000, 50000 PPM IN DIET, 25000, 50000 PPM IN DIET inactive; negative | Species: RAT, Strain/Sex: F344/MALE, Route: ORAL, 25000, 50000 PPM IN DIET, 25000, 50000 PPM IN DIET inactive; negative
